# Data published in patent US20030073731A1, “Compositions and methods of the use thereof achiral analogues of CC-1065 and the duocarmycins” (priority 2000, published 2003).
# Read-outs that look alike come from different tables or passages of the source.
# Tests used:
# [1] = system: PC3 (human prostate cancer cells); assay: cells; assay type: cell-based
# Protocol: Cells were seeded in 96-well microtiter plates at densities of 1000 cells/well. The optimal seeding density was determined to ensure exponential growth in control wells throughout the experimental period and to obtain a linear relationship between absorbance at 492 nm and cell number when analyzed by the sulforhodamine B (SRB) assay (43). 24 hours after seeding the cells were incubated for 1 hour or continuously for 3 days with the drugs (concentration range 0.01 to 500 pM). The cells were washed once and then incubated in drug free medium for 6 days. At the end of the incubation cell growth was determined by the SRB assay, which quantifies viable cells by measuring their total cellular protein content. […] Similar studies were conducted against the growth of PC3 (human prostate cancer cells) and MCF-7 (human breast cancer cells).
# SR = assay: cells; assay type: cell-based, human
# MALME-3M = assay type: cell-based, human
# IGROV1 = assay: cells; assay type: cell-based, human
# OVCAR-5 = assay type: cell-based, human
# MCF7/ADR-RES = assay: cells; assay type: cell-based, human
# EKVX [2] = system: EKVX
# L1210 leukemia cells = assay: cells; assay type: cell-based, murine; conditions: Mus musculus; L1210, 72 hr incubation
# Protocol: (§1) The P815 and L1210 cell lines were obtained from American Type Tissue Culture Collection (ATCC). The cell lines were grown in Delbecco's Modified Eagle Medium (DMEM, Atlanta Biologicals) supplemented with 10% fetal bovine serum, Hepes Buffer (2 mM, Mediatech Cellgro, 25-060-Cl), L-Glutamine (2 mM, Mediatech Cellgro), and penicillin/streptomycin (50,000 units penicillin, […] streptomycin, Atlanta Biologicals). Cells were maintained at 37° C. in a 5% humidified CO2 atmosphere. […] This cell suspension (100 μL) was added to 96 well flat-bottom cell culture plates. At this concentration, 80,000 cells were seeded in each well. Drug solutions (dissolved in DMSO and diluted in DMEM) were added to each well (5 μL/well) resulting in final concentrations ranging from […] to 1×10^−12 M. Quadruplicate wells were prepared for each drug concentration. The plates were incubated for 72 hr at 37° C. in a 5% CO2 atmosphere. MTT (3-(4,5-dimethylthiazol-2-yl)-2,5-diphenyl tetrazolium bromide) was dissolved in PBS (5 mg/ml). After the indicated cell incubation period, 10 μL of this stock MTT solution was added to each well and the plates were further incubated for 4 h at 37° C. in a 5% CO2 atmosphere. […] The contents of the well were mixed thoroughly by pipetting the cell suspension up and down and the plates were allowed to sit at room temperature for 15 min in order to allow for full development of the purple color. The plates were read on a Dynatech Plate Reader, utilizing Dynex Revelation 3.2 software, with a test wavelenth of 570 nm and a reference wavelength of […].
# P815 mastocytoma cells = assay: cells; assay type: cell-based, murine; conditions: Mus musculus; P815, 72 hr incubation
# Protocol: as §1
# [3] = NCI in-vitro cytotoxicity screen, Breast Cancer panel; assay type: cell-based, human; conditions: Homo sapiens, read-out: LC50
# Protocol: (§2) The compounds of this invention were also tested against the panel of 60 human cancer cell lines at the National Cancer Institute, Bethesda, Md. […] The cytotoxicity studies were conducted using a 48 hour exposure, and measuring the optical density of sulforhodamine B-derived color.
# T-470 = assay: as above; assay type: cell-based, human; conditions: T-470
# Protocol: as §2
# K-562 = assay: cells; conditions: Homo sapiens
# EKVX [4] = assay: cells; conditions: Homo sapiens
# NCI-H23 = assay: cells; conditions: Homo sapiens
# HT29 = assay: cells; conditions: Homo sapiens
# KM12 = assay: cells; conditions: Homo sapiens
# SW-620 = assay: cells; conditions: Homo sapiens
# SF-295 = assay: cells; conditions: Homo sapiens
# SNB-75 = assay: cells; conditions: Homo sapiens
# SK-MEL-28 = assay: cells; conditions: Homo sapiens
# BT-549 = assay: cells; conditions: Homo sapiens
# Protocol for human H522 lung cancer: For these assays, human tumor cells are cultivated in polyvinylidene fluoride (PVDF) hollow fibers, and a sample of each cell line is implanted into each of two physiologic compartments (intraperitoneal and subcutaneous) in mice. […] Three mice are treated with potential antitumor compounds at each of 2 test doses by the intraperitoneal route using a QD×4 treatment schedule. Vehicle controls consist of 6 mice receiving the compound diluent only. The fiber cultures are collected on the day following the last day of treatment. To assess anticancer effects, viable cell mass is determined for each of the cell lines using a formazan dye (MTT) conversion assay. From this, the %T/C can be calculated using the average optical density of the compound treated samples divided by the average optical density of the vehicle controls. In addition, the net increase in cell mass can be determined for each sample as a sample of fiber cultures are assessed for viable cell mass on the day of implantation into mice. Thus, the cytostatic and cytocidal capacities of the test compound can be assessed.
# The data are reported as %T/C for each of the 2 compound doses against each of the cell lines with separate values calculated for the intraperitoneal and subcutaneous samples.
# Compounds are selected for further in vivo testing in standard subcutaneous xenograft models on the basis of several hollow fiber assay criteria. […] The intraperitoneal and subcutaneous samples are scored separately so that criteria (1) and (2) can be evaluated. Compounds with a combined IP+SC score≧20, a SC score×8 or a net cell kill of one or more cell lines are referred for xenograft testing. These criteria were statistically validated by comparing the activity outcomes of ≧80 randomly selected compounds in the hollow fiber assay and in the xenograft testing.
compound,measurement,setting,value
4-(2-Chloroethyl)-3-[5-(5-benzofuran-2-carboxamido)indole-2-carboxamido]phenol [Compound 1],IC50,"[1]; PC3, Continuous exposure",3000 nM
same,GI50,SR,852 nM
same,TGI,SR,8.12E-06 Molar
same,GI50,MALME-3M,1840 nM
same,TGI,MALME-3M,3.56E-06 Molar
same,GI50,IGROV1,1500 nM
same,TGI,IGROV1,3.41E-06 Molar
same,GI50,OVCAR-5,2280 nM
same,TGI,OVCAR-5,5.80E-06 Molar
same,GI50,MCF7/ADR-RES; MCF7/ADR-RES,1650 nM
same,TGI,MCF7/ADR-RES; MCF7/ADR-RES,3.79E-06 Molar
same,Percent Growth,"MCF7/ADR-RES; MCF7/ADR-RES, Log10 Concentration (Molar) −4.0",−55%
same,Percent Growth,"MCF7/ADR-RES; MCF7/ADR-RES, Log10 Concentration (Molar) −7.0",97%
same,GI50,RPMI-8226,1860 nM
same,TGI,RPMI-8226,5.59E-06 Molar
same,GI50,EKVX [2],1780 nM
same,TGI,EKVX [2],4.41E-06 Molar
same,GI50,HOP-92,2620 nM
same,GI50,NCI-H522,933 nM
same,TGI,NCI-H522,3.00E-06 Molar
same,GI50,HCT-116,1940 nM
same,TGI,HCT-116,5.73E-06 Molar
same,GI50,SNB-19,3530 nM
same,TGI,SNB-19,1.38E-05 Molar
same,GI50,M14,1490 nM
same,TGI,M14,3.19E-06 Molar
same,GI50,ACHN,1530 nM
same,TGI,ACHN,5.55E-06 Molar
same,GI50,HS 578T,11800 nM
same,TGI,HS 578T,3.96E-06 Molar
same,IP+SC score,human H522 lung cancer,18
same,cell kill,human H522 lung cancer,significant cells kill was observed
same,IP score,human H522 lung cancer; intraperitoneal fibers,8
same,SC score,human H522 lung cancer; subcutaneous fibers,10
"COC(=O)c1[nH]c2c(O)cc(NC(=O)c3cc4cc(OC)c(OC)c(OC)c4[nH]3)c(CCCl)c2c1C(=O)OC [Compound 22, Dimethyl 4-(2-chloroethyl)-7-hydroxy-5-(5,6,7-trimethoxyindole-2-carboxamido)indole-2,3-dicarboxylate]",IC50,"[1]; Homo sapiens, PC3, 1 hour exposure",350 nM
same,IC50,"[1]; Homo sapiens, PC3, Continuous exposure",50 nM
same,IC50,L1210 leukemia cells,4200 nM
same,IC50,P815 mastocytoma cells,5400 nM
same,GI50,"SR; Homo sapiens, SR, SB",5.6 nM
same,GI50,"IGROV1; Homo sapiens, IGROV-1, IGROV1",62.1 nM
same,GI50,"MCF7/ADR-RES; Homo sapiens, NCI/ADR-RES",137 nM
same,CC50,[3],> 50000 nM
same,GI50,T-470; Homo sapiens,171 nM
same,Percent Growth,T-470; Log10 Concentration −4.3,14%
same,TGI,HOP-92; HOP-92,2.57E−07 Molar
same,GI50,K-562; K562,315 nM
same,CC50,"K-562; K562, read-out: LC50",> 50000 nM
same,GI50,EKVX [4],164 nM
same,CC50,EKVX [4]; read-out: LC50,3250 nM
same,GI50,NCI-H23; NCI-H23,67.5 nM
same,CC50,"NCI-H23; NCI-H23, read-out: LC50",> 50000 nM
same,GI50,HT29; HT-29,68.1 nM
same,CC50,"HT29; HT-29, read-out: LC50",2340 nM
same,GI50,KM12; KM12,87.4 nM
same,CC50,"KM12; KM12, read-out: LC50",474 nM
same,GI50,SW-620; SW-620,109 nM
same,CC50,"SW-620; SW-620, read-out: LC50",> 50000 nM
same,GI50,SF-295; SF-295,126 nM
same,CC50,"SF-295; SF-295, read-out: LC50",> 50000 nM
same,GI50,SNB-75; SNB-75,62.8 nM
same,CC50,"SNB-75; SNB-75, read-out: LC50",711 nM
same,GI50,SK-MEL-28; SK-MEL-28,172 nM
same,CC50,"SK-MEL-28; SK-MEL-28, read-out: LC50",> 50000 nM
same,GI50,BT-549; BT-549,329 nM
same,CC50,"BT-549; BT-549, read-out: LC50",> 50000 nM
